Test results as given in patent US20250388605A1, “HETEROBIFUNCTIONAL COMPOUNDS AND METHODS OF TREATING DISEASE” (Halda Therapeutics OpCo, Inc., priority 2022, published 2025).

What was measured:
[1] = tested on: T-Rex 293 cell line SC3 cells having increased expression of androgen receptor protein due to exposure to doxycycline; test: Cellular growth inhibition, T-Rex 293 SC3 cells with doxycycline (increased androgen receptor expression), CellTiter-Glo; format: cell-based; conditions: T-Rex 293 SC3 cells with 10 ng/mL doxycycline (increased androgen receptor expression), 72 hours, CellTiter-Glo 2.0
Procedure: (§1) The following types of cells were prepared for this experiment: (i) a T-Rex 293 cell line having increased expression of androgen receptor protein due to exposure to doxycycline and (ii) a T-Rex 293 cell line lacking increased expression of androgen receptor protein. Ability of the test compounds to inhibit proliferation of the foregoing cell types was evaluated according to the procedures set forth below.
(§2) The doxycycline-inducible androgen receptor protein expressing cell line was established using the following protocol: T-Rex 293 cells were purchased from Invitrogen (Cat #R71007) and transfected using Lipofectamine 2000 with the wild-type androgen receptor protein sequence cloned into the pcDNA4/TO vector. Transfected cells were selected using 400 μg/mL Zeocin (Invitrogen Cat #R25001). Following selection, single clones were raised and maintained in Dulbecco's Modified Eagle Medium (DMEM) supplemented with 10% w/w Tetracycline-free fetal bovine serum (FBS) and 250 μg/mL Zeocin. Clones were analyzed for expression of androgen receptor protein in the presence and absence of 10 ng/mL doxycycline (Sigma Cat #D9891), and a single doxycycline-inducible clone (hereinafter “SC3”) was selected for use in downstream assays.
(§3) The SC3 cells were seeded on poly-D-lysine coated, black clear-bottom 384-well plates at 2500/well, in 25 μL Phenol Red Free Dulbecco's Modified Eagle Medium (DMEM) supplemented with 10% w/w charcoal-dextran treated fetal bovine serum (FBS) and 1% w/w pen-strep, with or without 10 ng/mL doxycycline. Pen-Strep is a commercially available mixture of penicillin G and streptomycin, which is used in mammalian cell culture media to prevent bacterial contamination. Phenol Red Free Dulbecco's Modified Eagle Medium (DMEM) supplemented with 10% w/w charcoal-dextran treated fetal bovine serum (FBS) and 1% w/w pen-strep, with or without 10 ng/mL doxycycline is herein referred to as Treatment Medium. Following seeding of cells in the plates, the plates were spun at 300×g for 30 seconds, then equilibrated to room temperature for 30 minutes, and then deposited in a humidified tissue culture incubator maintained at 37° C. with 5% CO2.
(§4) At 24 hours after seeding of the cells, dilutions of test compound were prepared in DMSO and dissolved in Treatment Medium, to achieve a final DMSO concentration of 0.5% w/w, thereby providing the Test Compound Solution. A 25 μL aliquot of the Test Compound Solution was added to cells in the well plates. An equal volume of a solution containing DMSO and Treatment Medium was used as a negative control. Following treatment of cells with Test Compound Solution or said equal volume of a solution containing DMSO and Treatment Medium, the plates were spun at 300×g for 30 seconds, and then left in an incubator for 72 hours.
(§5) At the end of the treatment duration, cell viability was quantified with CellTiter-Glo 2.0 reagent (Promega Cat #G9243). For this purpose, plates were equilibrated to room temperature for 30 minutes, and then 25 μL of CellTiter-Glo 2.0 reagent was added to cells in the plate wells. Plates were then agitated on a shaker for two minutes at 500 rpm and subsequently incubated at room temperature for 10 minutes. Following incubation, the plates were spun at 3000×g for 30 seconds, then sealed with an optical adhesive cover, and luminescence readings were measured with an EnVision Plate Reader.
(§6) Data was normalized using zero luminescence for baseline. A four-parameter non-linear regression curve fit was applied to dose-response data in GraphPad Prism data analysis software to determine the half-maximal growth inhibitory concentration (GI50) for each test compound.

[2] = tested on: T-Rex 293 cell line SC3 cells lacking increased expression of androgen receptor protein; test: Cellular growth inhibition, T-Rex 293 SC3 cells without doxycycline (no increased androgen receptor expression), CellTiter-Glo; format: cell-based; conditions: T-Rex 293 SC3 cells not exposed to doxycycline (no increased androgen receptor expression), 72 hours
Procedure: as §1, §2, §3, §4, §5, §6

VCaP cells = test: Cellular growth inhibition assay for VCaP cells, CellTiter-Glo; format: cell-based, human; conditions: 72 hours
Procedure: VCaP cells were purchased from American Type Cell Culture (ATCC Cat #CRL2876) and then seeded on poly-D-lysine coated, black clear-bottom 384-well plates at 5000/well in 25 μL Dulbecco's Modified Eagle Medium (DMEM) supplemented with 10% w/w Fetal bovine serum (FBS) and 1% w/w Pen-Strep. Pen-Strep is a commercially available mixture of penicillin G and streptomycin, which is used in mammalian cell culture media to prevent bacterial contamination. Dulbecco's Modified Eagle Medium (DMEM) supplemented with 10% w/w fetal bovine serum (FBS) and 1% w/w Pen-Strep is herein referred to as Treatment Medium. Following seeding of cells in the plates, the plates were spun at 300×g for 30 seconds, then equilibrated to room temperature for 30 minutes, and then deposited in a humidified tissue culture incubator maintained at 37° C. with 5% CO2.
as §4, §5, §6

Q: How did the GI50 [1] turn out when CCS(=O)(=O)Cc1ccc(Oc2cccc(CCCOC3CCN(c4ncc(C(=O)N[C@H]5C(C)(C)[C@H](Oc6ccc(C#N)c(Cl)c6)C5(C)C)cn4)CC3)c2F)c(-c2cn(C)c(=O)c3[nH]ccc23)c1 [Compound I-184] was run?
A: < 0.5 µM

Q: And the GI50 [2]?
A: < 0.5 µM

Q: And the GI50 (VCaP cells; Homo sapiens)?
A: < 0.5 µM

Q: With CCS(=O)(=O)Nc1ccc(Oc2cccc(OCCCN3CCN(CC4CCN(c5ncc(C(=O)N[C@H]6C(C)(C)[C@H](Oc7ccc(C#N)c(Cl)c7)C6(C)C)cn5)CC4)CC3)c2)c(-c2cn(C)c(=O)c3[nH]ccc23)c1 [Compound I-33] as the molecule, how does the GI50 [1] read?
A: < 0.5 µM

Q: What about the GI50 [2] of the same molecule?
A: < 0.5 µM

Q: And the GI50 (VCaP cells; Homo sapiens)?
A: < 0.5 µM

Q: Which results are given for CCS(=O)(=O)Nc1ccc(Oc2ccc(CCCOC3CCN(c4ncc(C(=O)N[C@H]5C(C)(C)[C@H](Oc6ccc(C#N)c(Cl)c6)C5(C)C)cn4)CC3)cc2)c(-c2cn(C)c(=O)c3[nH]ccc23)c1 [Compound I-152]?
A: GI50 [1]: < 0.5 µM; GI50 [2]: < 0.5 µM; GI50 (VCaP cells): < 0.5 µM

Q: What does the source list for CCC(=O)N(C)c1ccc(Oc2cccc(OCCOC3CCN(c4ncc(C(=O)N[C@H]5C(C)(C)[C@H](Oc6ccc(C#N)c(Cl)c6)C5(C)C)cn4)CC3)c2)c(-c2cn(C)c(=O)c3[nH]ccc23)c1 [Compound I-60]?
A: GI50 [1]: < 0.5 µM; GI50 [2]: > 3 µM; GI50 (VCaP cells; Homo sapiens): < 0.5 µM

Q: Which GI50 [1] does the source give for CCS(=O)(=O)c1ccc(Oc2cccc(CCCOC3CCN(c4ncc(C(=O)N[C@H]5C(C)(C)[C@H](Oc6ccc(C#N)c(Cl)c6)C5(C)C)cn4)CC3)c2F)c(-c2cn(C)c(=O)c3[nH]ccc23)c1 [Compound I-176] here?
A: < 0.5 µM

Q: What about the GI50 [2] of the same molecule?
A: < 0.5 µM

Q: What about the GI50 (VCaP cells; Homo sapiens) of the same molecule?
A: < 0.5 µM

Q: Which GI50 [1] does the source give for CCS(=O)(=O)Cc1ccc(Oc2cccc(N3CC(N4CCN(c5ncc(C(=O)N[C@H]6C(C)(C)[C@H](Oc7ccc(C#N)c(Cl)c7)C6(C)C)cn5)CC4)C3)c2F)c(-c2cn(C)c(=O)c3[nH]ccc23)c1 [Compound I-174] here?
A: < 0.5 µM

Q: And the GI50 [2]?
A: > 3 µM

Q: What about the GI50 (VCaP cells; Homo sapiens) of the same molecule?
A: < 0.5 µM

Q: For CCS(=O)(=O)Nc1ccc(-n2ccc(OCCOC3CCN(c4ncc(C(=O)NC5C(C)(C)C(Oc6ccc(C#N)c(Cl)c6)C5(C)C)cn4)CC3)cc2=O)c(-c2cn(C)c(=O)c3[nH]ccc23)c1 (stereo not drawn) [Compound I-112, N-[3-(3-chloro-4-cyano-phenoxy)-2,2,4,4-tetramethyl-cyclobutyl]-2-[4-[2-[[1-[4-(ethylsulfonylamino)-2-(6-methyl-7-oxo-1H-pyrrolo[2,3-c]pyridin-4-yl)phenyl]-2-oxo-4-pyridyl]oxy]ethoxy]-1-piperidyl]pyrimidine-5-carboxamide], which GI50 [1] is on record?
A: < 0.5 µM

Q: And the GI50 [2]?
A: > 3 µM

Q: And the GI50 (VCaP cells; Homo sapiens)?
A: > 3 µM

Q: Which results are given for CCS(=O)(=O)Nc1ccc(Oc2cccc(OCCCCOC3CCN(c4ncc(C(=O)N[C@H]5C(C)(C)[C@H](Oc6ccc(C#N)c(Cl)c6)C5(C)C)cn4)CC3)c2)c(-c2cn(C)c(=O)c3[nH]ccc23)c1 [Compound I-15]?
A: GI50 [1]: < 0.5 µM; GI50 [2]: 0.5 to 1.5 µM; GI50 (VCaP cells; Homo sapiens): < 0.5 µM

Q: What does the source list for CCC(=O)Nc1ccc(Oc2cccc(OCCOC3CCN(c4ncc(C(=O)N[C@H]5C(C)(C)[C@H](Oc6ccc(C#N)c(Cl)c6)C5(C)C)cn4)CC3)c2)c(-c2cn(C)c(=O)c3[nH]ccc23)c1 [Compound I-59, N-((1r, 3r)-3-(3-chloro-4-cyanophenoxy)-2,2,4,4-tetramethylcyclobutyl)-2-(4-(2-(3-(2-(6-methyl-7-oxo-6,7-dihydro-1H-pyrrolo[2,3-c]pyridin-4-yl)-4-propionamidophenoxy)phenoxy)ethoxy)piperidin-1-yl)pyrimidine-5-carboxamide]?
A: GI50 [1]: < 0.5 µM; GI50 [2]: > 3 µM; GI50 (VCaP cells; Homo sapiens): > 3 µM

Q: Which results are given for CCS(=O)(=O)Nc1ccc(Oc2cccc(CCCOC3CCN(c4ncc(C(=O)N[C@H]5C(C)(C)[C@H](Oc6ccc(C#N)c(Cl)c6)C5(C)C)cn4)CC3)c2)c(-c2cn(C)c(=O)c3[nH]ccc23)c1 [Compound I-20]?
A: GI50 [1]: < 0.5 µM; GI50 [2]: < 0.5 µM; GI50 (VCaP cells; Homo sapiens): < 0.5 µM

Q: For Cn1cc(-c2cc(C(C)(C)O)ccc2Oc2ccc(N3CC4(CCN(c5ncc(C(=O)N[C@H]6C(C)(C)[C@H](Oc7ccc(C#N)c(Cl)c7)C6(C)C)cn5)CC4)C3)cc2)c2cc[nH]c2c1=O [Compound I-353], which GI50 [1] is on record?
A: < 0.5 µM

Q: What about the GI50 [2] of the same molecule?
A: 1.5 to 3 µM

Q: And the GI50 (VCaP cells)?
A: 1.5 to 3 µM

Q: With CCS(=O)(=O)Nc1ccc(Oc2cccc(NCCN(C)C3CCN(c4ncc(C(=O)N[C@H]5C(C)(C)[C@H](Oc6ccc(C#N)c(Cl)c6)C5(C)C)cn4)CC3)c2)c(-c2cn(C)c(=O)c3[nH]ccc23)c1 [Compound I-173] as the molecule, how does the GI50 [1] read?
A: 0.5 to 1.5 µM

Q: What about the GI50 [2] of the same molecule?
A: > 3 µM

Q: And the GI50 (VCaP cells; Homo sapiens)?
A: < 0.5 µM

Q: With Cn1cc(-c2cc(NS(=O)(=O)C(F)(F)F)ccc2Oc2cccc(OCCOC3CCN(c4ncc(C(=O)N[C@H]5C(C)(C)[C@H](Oc6ccc(C#N)c(Cl)c6)C5(C)C)cn4)CC3)c2F)c2cc[nH]c2c1=O [Compound I-163, N-[3-(3-chloro-4-cyano-phenoxy)-2,2,4,4-tetramethyl-cyclobutyl]-2-[4-[2-[2-fluoro-3-[2-(6-methyl-7-oxo-1H-pyrrolo[2,3-c]pyridin-4-yl)-4-(trifluoromethylsulfonylamino)phenoxy]phenoxy]ethoxy]-1-piperidyl]pyrimidine-5-carboxamide] as the molecule, how does the GI50 [1] read?
A: < 0.5 µM

Q: And the GI50 [2]?
A: > 3 µM

Q: What about the GI50 (VCaP cells; Homo sapiens) of the same molecule?
A: 0.5 to 1.5 µM

Q: Which GI50 [1] does the source give for CCS(=O)(=O)Nc1ccc(Oc2cccc(OCCOC3CCN(c4ccc(C(=O)N[C@H]5C(C)(C)[C@H](Oc6ccc(C#N)c(Cl)c6)C5(C)C)nn4)CC3)c2F)c(-c2cn(C)c(=O)c3[nH]ccc23)c1 [Compound I-162] here?
A: < 0.5 µM

Q: What about the GI50 [2] of the same molecule?
A: > 3 µM

Q: And the GI50 (VCaP cells; Homo sapiens)?
A: < 0.5 µM

Q: For CCS(=O)(=O)Nc1ccc(Oc2cccc(OCCN3CCN(CC4CCN(c5ncc(C(=O)N[C@H]6C(C)(C)[C@H](Oc7ccc(C#N)c(Cl)c7)C6(C)C)cn5)CC4)CC3)c2)c(-c2cn(C)c(=O)c3[nH]ccc23)c1 [Compound I-32], which GI50 [1] is on record?
A: < 0.5 µM

Q: And the GI50 [2]?
A: < 0.5 µM

Q: What about the GI50 (VCaP cells; Homo sapiens) of the same molecule?
A: < 0.5 µM

Q: CCS(=O)(=O)Cc1ccc(Oc2cccc(OCCOC3CCN(c4ccc(C(=O)N[C@H]5C(C)(C)[C@H](Oc6ccc(C#N)c(Cl)c6)C5(C)C)nn4)CC3)c2F)c(-c2cn(C)c(=O)c3[nH]ccc23)c1 [Compound I-167] was tested. Which GI50 [1] did it give?
A: < 0.5 µM

Q: What about the GI50 [2] of the same molecule?
A: > 3 µM

Q: And the GI50 (VCaP cells; Homo sapiens)?
A: < 0.5 µM

Q: Which results are given for Cn1cc(-c2cc(CS(C)(=O)=O)ccc2Oc2cccc(OCCOC3CCN(c4ncc(C(=O)N[C@H]5C(C)(C)[C@H](Oc6ccc(C#N)c(Cl)c6)C5(C)C)cn4)CC3)c2)c2cc[nH]c2c1=O [Compound I-53, N-((1r, 3r)-3-(3-chloro-4-cyanophenoxy)-2,2,4,4-tetramethylcyclobutyl)-2-(4-(2-(3-(2-(6-methyl-7-oxo-6,7-dihydro-1H-pyrrolo[2,3-c]pyridin-4-yl)-4-((methylsulfonyl)methyl)phenoxy)phenoxy)ethoxy)piperidin-1-yl)pyrimidine-5-carboxamide]?
A: GI50 [1]: < 0.5 µM; GI50 [2]: < 0.5 µM; GI50 (VCaP cells; Homo sapiens): < 0.5 µM

Q: Which results are given for CCS(=O)(=O)Nc1ccc(Oc2cccc(OCCCOCCOC3CCN(c4ncc(C(=O)N[C@H]5C(C)(C)[C@H](Oc6ccc(C#N)c(Cl)c6)C5(C)C)cn4)CC3)c2)c(-c2cn(C)c(=O)c3[nH]ccc23)c1 [Compound I-14]?
A: GI50 [1]: < 0.5 µM; GI50 [2]: 0.5 to 1.5 µM; GI50 (VCaP cells; Homo sapiens): < 0.5 µM

Q: For CCS(=O)(=O)Nc1ccc(Oc2cccc(OCCCC3CCN(c4ncc(C(=O)N[C@H]5C(C)(C)[C@H](Oc6ccc(C#N)c(Cl)c6)C5(C)C)cn4)CC3)c2F)c(-c2cn(C)c(=O)c3[nH]ccc23)c1 [Compound I-155], which GI50 [1] is on record?
A: < 0.5 µM

Q: What about the GI50 [2] of the same molecule?
A: > 3 µM

Q: And the GI50 (VCaP cells; Homo sapiens)?
A: < 0.5 µM
